Columns and labels:
Assay type in all cases: in vivo
[1] = tested on: barnyardgrass (Echinochloa crus-galli); assay: Test A preemergence soil spray, visual injury rating 0-100; conditions: 10 days, 0 = no effect, 100 = complete control
Method in brief: (§1)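 Plants were grown in a loam soil-sand blend and treated with test chemical in a non-phytotoxic solvent mixture containing surfactant, either sprayed on soil preemergence or applied postemergence to 2-10 cm plants. After 10 days in a greenhouse, injury was scored visually against untreated controls, 0 meaning no effect and 100 complete control.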

[2] = tested on: blackgrass (Alopecurus myosuroides); assay: as above; conditions: 10 days, 0 = no effect, 100 = complete control
Method in brief: as §1

corn (Zea mays) [3] = assay: as above; conditions: 10 days, 0 = no effect, 100 = complete control
Method in brief: as §1

[4] = tested on: green foxtail (Setaria viridis); assay: as above; conditions: 10 days, 0 = no effect, 100 = complete control
Method in brief: as §1

kochia (Bassia scoparia) [5] = assay: as above; conditions: 10 days, 0 = no effect, 100 = complete control
Method in brief: as §1

[6] = tested on: oat, wild (wild oat, Avena fatua); assay: as above; conditions: 10 days, 0 = no effect, 100 = complete control
Method in brief: as §1

[7] = tested on: palmer (palmer amaranth, palmer pigweed, Amaranthus palmeri); assay: as above; conditions: 10 days, 0 = no effect, 100 = complete control
Method in brief: as §1

[8] = tested on: ragweed (common ragweed, Ambrosia artemisiifolia); assay: as above; conditions: 10 days, 0 = no effect, 100 = complete control
Method in brief: as §1

[9] = tested on: ryegrass, Italian (italian ryegrass, Lolium multiflorum); assay: as above; conditions: 10 days, 0 = no effect, 100 = complete control
Method in brief: as §1

soybean (Glycine max) [10] = assay: as above; conditions: 10 days, 0 = no effect, 100 = complete control
Method in brief: as §1

[11] = tested on: wheat (Triticum aestivum); assay: as above; conditions: 10 days, 0 = no effect, 100 = complete control
Method in brief: as §1

[12] = tested on: barnyardgrass (Echinochloa crus-galli); assay: Test A postemergence application, visual injury rating 0-100; conditions: Postemergence, 10 days, 0 is no effect, 100 is complete control
Method in brief: as §1

[13] = tested on: blackgrass (Alopecurus myosuroides); assay: as above; conditions: Postemergence, 10 days, 0 is no effect, 100 is complete control
Method in brief: as §1

corn (Zea mays) [14] = assay: as above; conditions: Postemergence, 10 days, 0 is no effect, 100 is complete control
Method in brief: as §1

[15] = tested on: galium (catchweed bedstraw, Galium aparine); assay: as above; conditions: Postemergence, 10 days, 0 is no effect, 100 is complete control
Method in brief: as §1

[16] = tested on: green foxtail (Setaria viridis); assay: as above; conditions: Postemergence, 10 days, 0 is no effect, 100 is complete control
Method in brief: as §1

[17] = tested on: horseweed (Erigeron canadensis); assay: as above; conditions: Postemergence, 10 days, 0 is no effect, 100 is complete control
Method in brief: as §1

kochia (Bassia scoparia) [18] = assay: as above; conditions: Postemergence, 10 days, 0 is no effect, 100 is complete control
Method in brief: as §1

[19] = tested on: oat, wild (wild oat, Avena fatua); assay: as above; conditions: Postemergence, 10 days, 0 is no effect, 100 is complete control
Method in brief: as §1

[20] = tested on: palmer (palmer amaranth, palmer pigweed, Amaranthus palmeri); assay: as above; conditions: Postemergence, 10 days, 0 is no effect, 100 is complete control
Method in brief: as §1

[21] = tested on: ragweed (common ragweed, Ambrosia artemisiifolia); assay: as above; conditions: Postemergence, 10 days, 0 is no effect, 100 is complete control
Method in brief: as §1

[22] = tested on: ryegrass, Italian (italian ryegrass, Lolium multiflorum); assay: as above; conditions: Postemergence, 10 days, 0 is no effect, 100 is complete control
Method in brief: as §1

soybean (Glycine max) [23] = assay: as above; conditions: Postemergence, 10 days, 0 is no effect, 100 is complete control
Method in brief: as §1

[24] = tested on: wheat (Triticum aestivum); assay: as above; conditions: Postemergence, 10 days, 0 is no effect, 100 is complete control
Method in brief: as §1

[25] = tested on: barnyardgrass (Echinochloa crusgalli); assay: Test B flooded paddy test, visual plant response rating 0-100; conditions: 250 g ai/ha, Flood, applied to paddy water, evaluated after 13 days
Method in brief: (§2)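 2-leaf plants; flood 3 cm over soil; compound dosed into paddy water; depth kept constant; greenhouse 13 d; visual scoring vs controls. Dash = no result.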

[26] = tested on: ducksalad (Heteranthera limosa); assay: as above; conditions: 250 g ai/ha, Flood, applied to paddy water, evaluated after 13 days
Method in brief: as §2

rice (Oryza sativa) = assay: as above; conditions: 250 g ai/ha, Flood, applied to paddy water, evaluated after 13 days
Method in brief: as §2

[27] = tested on: sedge, umbrella (small-flower umbrella sedge, Cyperus difformis); assay: as above; conditions: 250 g ai/ha, Flood, applied to paddy water, evaluated after 13 days
Method in brief: as §2

CSCCOC(=O)C1C=CC(NC(=O)C2(C)CN(c3cc(Cl)cc(Cl)c3)C(=O)O2)C1 (stereo not shown) [Compound 45]
100: Barnyardgrass plant response rating (0 to 100 scale) ([1]; 125 g ai/ha) | Barnyardgrass plant response rating (0 to 100 scale) ([1]; 500 g ai/ha) | Foxtail, Green plant response rating (0 to 100 scale) ([4]; 500 g ai/ha) | Kochia plant response rating (0 to 100 scale) (kochia (Bassia scoparia) [5]; 500 g ai/ha) | Amaranth, Palmer plant response rating (0 to 100 scale) ([7]; 125 g ai/ha) | Amaranth, Palmer plant response rating (0 to 100 scale) ([7]; 500 g ai/ha) | Barnyardgrass plant response rating (0 to 100 scale) ([12]; 125 g ai/ha) | Barnyardgrass plant response rating (0 to 100 scale) ([12]; 500 g ai/ha) | Blackgrass plant response rating (0 to 100 scale) ([13]; 125 g ai/ha) | Blackgrass plant response rating (0 to 100 scale) ([13]; 500 g ai/ha) | Corn plant response rating (0 to 100 scale) (corn (Zea mays) [14]; 125 g ai/ha) | Corn plant response rating (0 to 100 scale) (corn (Zea mays) [14]; 500 g ai/ha) | Amaranth, Palmer / Pigweed, Palmer plant response rating (0 to 100 scale) ([20]; 125 g ai/ha) | Amaranth, Palmer / Pigweed, Palmer plant response rating (0 to 100 scale) ([20]; 500 g ai/ha) | Plant response rating, Ducksalad (0 to 100 scale, 0 is no effect and 100 is complete control) [26] | Plant response rating, Sedge, Umbrella (0 to 100 scale, 0 is no effect and 100 is complete control) [27]
30: Soybean plant response rating (0 to 100 scale) (soybean (Glycine max) [10]; 125 g ai/ha)
20: Corn plant response rating (0 to 100 scale) (corn (Zea mays) [3]; 125 g ai/ha) | Kochia plant response rating (0 to 100 scale) (kochia (Bassia scoparia) [5]; 125 g ai/ha) | Ragweed plant response rating (0 to 100 scale) ([8]; 125 g ai/ha)
90: Blackgrass plant response rating (0 to 100 scale) ([2]; 125 g ai/ha) | Blackgrass plant response rating (0 to 100 scale) ([2]; 500 g ai/ha) | Foxtail, Green plant response rating (0 to 100 scale) ([4]; 125 g ai/ha) | Oat, Wild plant response rating (0 to 100 scale) ([6]; 500 g ai/ha) | Ryegrass, Italian plant response rating (0 to 100 scale) ([9]; 125 g ai/ha) | Ryegrass, Italian plant response rating (0 to 100 scale) ([9]; 500 g ai/ha) | Wheat plant response rating (0 to 100 scale) ([11]; 125 g ai/ha) | Wheat plant response rating (0 to 100 scale) ([11]; 500 g ai/ha) | Foxtail, Green plant response rating (0 to 100 scale) ([16]; 500 g ai/ha) | Oat, Wild plant response rating (0 to 100 scale) ([19]; 125 g ai/ha) | Oat, Wild plant response rating (0 to 100 scale) ([19]; 500 g ai/ha) | Soybean plant response rating (0 to 100 scale) (soybean (Glycine max) [23]; 125 g ai/ha) | Soybean plant response rating (0 to 100 scale) (soybean (Glycine max) [23]; 500 g ai/ha) | Wheat plant response rating (0 to 100 scale) ([24]; 125 g ai/ha) | Wheat plant response rating (0 to 100 scale) ([24]; 500 g ai/ha)
60: Corn plant response rating (0 to 100 scale) (corn (Zea mays) [3]; 500 g ai/ha) | Soybean plant response rating (0 to 100 scale) (soybean (Glycine max) [10]; 500 g ai/ha)
70: Ragweed plant response rating (0 to 100 scale) ([8]; 500 g ai/ha) | Galium plant response rating (0 to 100 scale) ([15]; 125 g ai/ha) | Galium plant response rating (0 to 100 scale) ([15]; 500 g ai/ha) | Ragweed plant response rating (0 to 100 scale) ([21]; 125 g ai/ha)
80: Oat, Wild plant response rating (0 to 100 scale) ([6]; 125 g ai/ha) | Foxtail, Green plant response rating (0 to 100 scale) ([16]; 125 g ai/ha) | Horseweed plant response rating (0 to 100 scale) ([17]; 125 g ai/ha) | Horseweed plant response rating (0 to 100 scale) ([17]; 500 g ai/ha) | Kochia plant response rating (0 to 100 scale) (kochia (Bassia scoparia) [18]; 125 g ai/ha) | Kochia plant response rating (0 to 100 scale) (kochia (Bassia scoparia) [18]; 500 g ai/ha) | Ragweed plant response rating (0 to 100 scale) ([21]; 500 g ai/ha) | Ryegrass, Italian plant response rating (0 to 100 scale) ([22]; 125 g ai/ha) | Ryegrass, Italian plant response rating (0 to 100 scale) ([22]; 500 g ai/ha)
75: Plant response rating, Barnyardgrass (0 to 100 scale, 0 is no effect and 100 is complete control) [25]
15: Plant response rating, Rice (0 to 100 scale, 0 is no effect and 100 is complete control) (rice (Oryza sativa))
